For data set [1], the system named is U87MG glioma cells. The data set can be described thus: Cell viability assay (trypan blue exclusion), U87MG. Type of data set: cell-based, human. Also on record: viable U87 cells after JAZ siRNA plus J1: dose or concentration left out as unconfirmed. How it is done: (§1) T98G, U87MG, U118MG, A172, LN18, DBTRG-05MG, LN229, M059J, WT4 human glioma cell lines were purchased from American Type Culture Collection (Rockville, Md.). Cell culture was conducted according to the ATCC's recommendations, available at www.atcc.org. Normal human astrocytes (NHA) were purchased from Lonza Bioscience (Switzerland). Cell cultures were grown according to the vendor's recommendations for each cell line. GL261 mouse glioma cell line was obtained from NCI (Frederick, Md.) and was grown in RPMI (Gibco BRL, Grand Island, N.Y.) containing 10% FBS, 1% Penicillin-Streptomycin, and 4 mM L-glutamine at 37° C. with 5% CO2.
(§2) J1 and its derivatives were provided by NCI developmental therapeutic program repository or purchased from Sigma-Aldrich Inc. Temozolomide (TMZ) was obtained from Schering-Plough (Kenilworth, N.J.). Both J1 and TMZ were dissolved in DMSO and stock solution of 100 mM were made.
JAZ siRNA and control siRNA were purchased from Invitrogen. Cell transfection was performed by using METAFECTENE PRO (Biontex Laboratories GmbH, Germany) following the manufacturer's instructions. Briefly, 40 pmoles of JAZ (or control) siRNA was added into 30 μl serum-free medium then mixed with METAFECTENE PRO solution and incubated for 15-20 minutes at room temperature. The final siRNA-lipid complex solution was added into one 24-well-plate well. The complex-containing medium was replaced with serum-containing medium at 3 hours after the transfection to reduce the toxicity.
Cell viability was measured by first seeding tumor cells in 24-well dishes at a density of 10,000 cells per well. Two days later, cells were transduced with JAZ (or control) siRNA. Forty-eight hours after transduction, cells were collected by trypsinization followed by the trypan blue exclusion method (Yang et al., J Biol Chem 1999; 274:27399-406) and counted manually using a hemacytometer. This experiment was repeated six times for each cell line and each time in triplicate.

The subject of the next data set is T98G glioma cells. The data set can be described thus: Cell viability assay (trypan blue exclusion), T98G. Type of data set: cell-based, human. The note with it: mutant-type p53-expressing T98G cells after J1 treatment. How it is done:
as §1, §2
(§3) JAZ siRNA and control siRNA were purchased from Invitrogen. […]
(§4) Cell viability was measured by first seeding tumor cells in 24-well dishes at a density of 10,000 cells per well. […] Forty-eight hours after transduction, cells were collected by trypsinization followed by the trypan blue exclusion method (Yang et al., J Biol Chem 1999; 274:27399-406) and counted manually using a hemacytometer. […]

A further data set concerns WT4 glioma cells. Kind of data set: Cell viability assay (trypan blue exclusion), WT4. Type of data set: cell-based, human. The note with it: p53-expressing and p53-non-expressing WT4 cells, J1 25 μM. As for the experimental part: as §1, §2, §3, §4
In another data set the test system is glioma cell viability. Kind of data set: GI50 comparison of J1 with FDA approved chemotherapy drugs (FIG. 12). The note with it: read-out: GI50 (concentration of drug that causes 50% growth inhibition). Type of data set: cell-based.
Another data set relates to lung cancer cells. Kind of data set: Cytotoxicity to lung cancer cells (FIG. 13). The data set is classed as cell-based.
The subject of the next data set is colon cancer cells. Kind of data set: Cytotoxicity to colon cancer cells (FIG. 13). Type of data set: cell-based.
For another data set, the system named is leukemia cells. The data set can be described thus: Cytotoxicity to leukemia cells (FIG. 13). Type of data set: cell-based.
For data set [2], the system named is U87MG glioma cells. The data set can be described thus: DNA laddering in glioma cells. Type of data set: cell-based, human. The conditions noted are these: J1 25 μM.
For data set [3], the system named is JAZ, p53, and Bax protein levels. The data set can be described thus: Western blot of JAZ, p53 and Bax. Type of data set: cell-based. The note with it: J1 25 μM. How it is done:
(§5) Whole cell protein extracts were prepared using cold lysis buffer consisting of: M-Per mammalian protein extraction reagent (Pierce Biochemical, Rockford, Ill.), 30 mM sodium fluoride, 1 mM sodium vanadate, and protease inhibitor cocktail tablets (Boehringer Mannheim). Samples were incubated on ice for 10 minutes and supernatants were recovered by centrifuging at 14,000 rpm at 4° C. for 20 minutes. Protein concentrations were determined by the BCA method (Pierce Biochemical). Proteins were separated on SDS-PAGE and transferred to nitrocellulose membrane (Osmonics, Minnetonka, Minn.). Blocking reagent is 5% nonfat dry milk in PBS (pH 7.4). Washing buffer is PBS (pH 7.4) with 0.1% Tween 20. Primary antibodies (p53, ATM, CHK1, CHK2) are commercially available. JAZ primary antibodies are described in Yang et al., Blood 108:4136-4145, 2006. The respective HRP-conjugated secondary antibodies were purchased from Boehringer Mannheim. Signals are visualized by using ECL chemiluminescence (Amersham, Indianapolis, Ind.) or Supersignal chemiluminescence (Pierce Biochemical) and Kodak X-OMAT films. Data acquired as integrated densitometric values are transformed to percentages of the values obtained from control samples visualized on the same blot.

The subject of another data set is U87 glioma cells. Kind of data set: Quantitative proteomics (iTRAQ 4plex), U87. Type of data set: cell-based, human. How it is done: (§6) FIGS. 14A and 14B are tables showing quantitative proteomic analysis of proteome changes 48 hours after J1 (65 μM, NCI) treatment on U87 (FIG. 14A) and U118 (FIG. 14B) glioma cells. To further explore the molecular mechanism of J1's cytotoxic effects on glioma cells, a quantitative proteomics analysis (iTRAQ 4plex) was conducted after J1 treatment. There were four groups: untreated U87 and U118 glioma cells and J1 treated U87 and U118 glioma cells at 48 hours. Each group was in triplicate. […] HSPA5 activation is a marker for Unfolded Protein Response (UPR), a pathway that can contribute to cell death or cell survival.

For another data set, the system named is U118 glioma cells. The data set can be described thus: Quantitative proteomics (iTRAQ 4plex), U118. Type of data set: cell-based, human. As for the experimental part:
as §6

For data set [4], the system named is ATF-4 protein levels in U87 glioma cells. The data set can be described thus: Western blot of ATF-4, U87. The conditions noted are these: U87, 24, 48, and 72 hours after J1 (10 and 25 μM). The data set is classed as cell-based, human. How it is done:
as §5

Data set [5] relates to ATF-4 protein levels in U118MG cell line. The data set can be described thus: Western blot of ATF-4, U118MG. The note with it: U118MG, 24, 48, and 72 hours after J1 (10 and 25 μM). Type of data set: cell-based, human. How it is done: as §5
In data set [6] the test system is ATF-4 and CHOP in U87 cells. Kind of data set: Immunofluorescence of ATF-4 and CHOP, U87. Type of data set: cell-based, human.
Data set [7] relates to primary cultured hepatocytes. Kind of data set: Cytotoxicity on primary cultured hepatocytes. Type of data set: cell-based. The note with it: 24 hours after drug treatment.
A further data set deals with HepG2 cells. The data set can be described thus: Cytotoxicity on HepG2. Type of data set: cell-based, Human. The note with it: dose and time-dependent.
Data set [8] concerns DU145 prostate carcinoma cells. Kind of data set: Cytotoxicity on DU145. The data set is classed as cell-based.
In data set [9] the test system is LNCAP prostate carcinoma cells. The data set can be described thus: Cytotoxicity on LNCAP. Type of data set: cell-based.
A further data set concerns GL261 glioma cells. Kind of data set: Cytotoxicity on GL261. The conditions noted are these: increasing concentrations. The data set is classed as cell-based, mouse. As for the experimental part: as §1
For a further data set, the system named is glioma. Kind of data set: In vitro glioma cytotoxic effects of J1 analogues (FIG. 18). Type of data set: cell-based.

Three molecules from US20110110958A1, “COMPOSITIONS AND METHODS FOR THE TREATMENT OF NEOPLASIA” (UNIVERSITY OF FLORIDA RESEARCH FOUNDATION, priority 2007, published 2011) can be followed below.

Each structure is given as a SMILES string.

`O=C(Nc1ccc(Cl)c(Cl)c1)Nc1ccccc1O` [J1, N′-(2-hydroxy-phenyl)-N-(3,4-dichlorophenyl)Urea]: the “viable U87 cells after JAZ siRNA plus J1” value in the data set with U87MG glioma cells [1] (24 hours after JAZ siRNA transfection, J1 for additional 24 hours) is reported as “did not lead to further reduction of viable U87 cells”. Also, the “viable U87 cells” value in the data set with U87MG glioma cells [1] (48 hours after J1 treatment (10 μM)) was “reduction of viable U87 cells”. Moreover, the “viable tumor cells, time and dose course” value in the data set with U87MG glioma cells [1] (U87MG cells after J1 treatment) is “time- and dose-dependent significant reduction of viable tumor cells”; with T98G glioma cells it was “time- and dose-dependent significant reduction of viable tumor cells”. The viable tumor cells entry in the data set with WT4 glioma cells was “time-dependent significant reduction of viable tumor cells”. Further, the GI50 in the data set with glioma cell viability turned out to be 10 µM. Besides, in the data set with lung cancer cells, the “cytotoxicity to lung cancer cells” value is “cytotoxic”. The “cytotoxicity to colon cancer cells” value in the data set on colon cancer cells is on record as “cytotoxic”. Further, in the data set with leukemia cells, the “cytotoxicity to leukemia cells” value was “cytotoxic”. Moreover, in the data set on U87MG glioma cells [2], the DNA laddering formation entry is “increased DNA laddering formation”. The “JAZ, p53, and Bax protein levels” value in data set [3] is reported as “did not alter”. Besides, the “HSPA5 (GRP78, Bip) protein levels” value was “consistently and significantly increased” in the data set on U87 glioma cells (U87, 48 hours after J1 (65 μM)); “consistently and significantly increased” in the data set on U118 glioma cells (U118, 48 hours after J1 (65 μM)). Also, the PLOD2 protein level entry in the data set on U87 glioma cells (U87 glioma cells) was “significantly down-regulated”. Moreover, the “proteins up-regulated by J1 treatment” value with U87 glioma cells (U87 glioma cells) is “PBEF1, HSPA5, ANXA1, TPI1, ANXA5, HSPA9, TGM2, NPM1, and RPLP2”; in the data set with U118 glioma cells (U118 glioma cells), “HSPA5, PBEF1, HSPA1B, VIM, LMNA and HIST2H3PS2”. In addition, the ATF-4 protein levels result in [4] is “time- and dose dependent increase”; in data set [5] it was “time- and dose dependent increase”. In addition, the “nuclear ATF-4 staining” value in data set [6] (12 hours after J1 (25 μM)) is recorded as “significantly increased”. Besides, in data set [6] (24 hours after J1 (25 μM)), the CHOP staining entry is given as “significantly increased”. The “cytotoxic effects on primary cultured hepatocytes” value in [7] was “minimal cytotoxic effects”. Also, the “cytotoxic effects on HepG2 cells” value with HepG2 cells is given as “significant cytotoxic effects”. In addition, the “cytotoxic effects on DU145 cells” value in data set [8] is “strong dose and time-dependent cytotoxic effects”. The “cytotoxic effects on LNCAP cells” value in data set [9] is “strong dose and time-dependent cytotoxic effects”. In addition, the “cytotoxic effects on GL261 glioma cells” value with GL261 glioma cells is listed as “progressively greater cytotoxic effects”.

On to `O=C(Nc1ccc(Cl)cc1)Nc1ccc(Cl)c(Cl)c1` [J1-h, 3-(4-chloro-phenyl)-1-(3,4-dichlorophenyl) Urea], for which, in data set [7], the “cytotoxic effects on primary cultured hepatocytes” value is reported as “minimal cytotoxic effects”. In the data set on HepG2 cells, the “cytotoxic effects on HepG2 cells” value was “significant cytotoxic effects”. Moreover, the “cytotoxic effects on DU145 cells” value in data set [8] was “strong dose and time-dependent cytotoxic effects”. Moreover, the “cytotoxic effects on LNCAP cells” value in [9] was “strong dose and time-dependent cytotoxic effects”. Further, the “cytotoxic effects on GL261 glioma cells” value with GL261 glioma cells was “progressively greater cytotoxic effects”. Moreover, in the data set on glioma, the “in vitro glioma cytotoxic effects” value was “glioma cytotoxic effects”.

As to `Cn1nnc2c(C(N)=O)ncn2c1=O` [Temozolomide, reference compound], in the data set with glioma cell viability, the GI50 was 100 µM.
